# Test results reported in US7265152B2 (ViroPharma Incorporated, priority 2002, dated 2007).
# Read-outs that look alike come from different tables or passages of the source.
# Tests used:
# HCV NS5B = target: T1, HCV NS5B (Hepatitis C virus genotype 1b, UniProt Q9WMX2); assay: Inhibition of viral RNA-dependent RNA polymerase (RdRp), in vitro biochemical assay; design: species or system HCV genotype 1b virus (BB7); details: read-out: HCV pol-BB7 IC50
# T1 construct: fusion protein, of which the carboxyl terminal 21 amino acids were removed to enhance its solubility; His tag (GSHHHHHH); made in house; host or cells: E. coli
# From the text: The HCV NS5B-directed RdRp activity was established and characterized in a standard in vitro biochemical assay using a purified HCV NS5B protein derived from the consensus sequence of a patient infected with HCV genotype 1b virus (BB7). (See Blight K J et al., Science. 2000, 290:1972-4). The NS5B consensus sequence was cloned and expressed in E. coli as a histidine tagged (GSHHHHHH) fusion protein, of which the carboxyl terminal 21 amino acids were removed to enhance its solubility.
# In addition to evaluating their activity in the replicon assay, representative compounds within the scope of the present invention, as shown in examples 1-453 of Table 1, were also evaluated for antiviral activity using this assay. A measure of the inhibitory activity of compounds of the invention may be expressed as IC50 values. IC50 values represent the concentration of the compound at which 50% of the RdRp activity is inhibited. […] These low concentrations of test compounds required to achieve 50% inhibition of the RdRp activity indicate that the compounds of the invention are effective at inhibiting RNA synthesis by viral RdRp enzymes.
# [1] = test system: HCV replicon (BB7 sequence) in Huh-7-Clone A cells; assay: HCV replicon assay: ELISA of NS5A protein in replicon-containing cells (Inhibition of Viral RNA Replication); assay type: cell-based
# From the text: Antiviral activity of representative compounds of the invention was first evaluated in a human liver-derived cell line (Huh-7-Clone A) containing the HCV replicon (BB7 sequence) (See Lohmann et al. Science. 1999, 285:110-3; Blight K J et al., Science. 2000, 290:1972-4; Pietschmann, T. et al., J. Virol. 2001, 73:1252-1264; and Lohmann, V. et al., J. Virol. 2001, 75:1437-1449). The HCV replicon is a subgenomic viral RNA that expresses the HCV proteins required for its own replication. These proteins include non-structural proteins NS3, NS4A, NS4B, NS5A and NS5B. The replicon also contains a foreign gene encoding a drug-selectable marker (neomycin phosphotransferase) to allow for G418 (neomycin) selection of cells that contain the replicon.
# An ELISA (enzyme-linked immunosorbant assay) was used to determine the effect of compounds within the scope of the invention on the amount of HCV NS5A protein produced after a 72-hour incubation of the replicon-containing cells in the presence of varying concentrations of compound. COSTAR® 96-well cell culture plates were used but other known cell culture plates may be used. After incubation, media is removed from wells and the cells are fixed to the assay plate using 0.05% glutaraldehyde. The glutaraldehyde is then washed off using phosphate-buffered saline (PBS) following a 1 hour incubation and cells are blocked for non-specific antibody binding using for example SUPERBLOCK® reagent (blocking buffer) in PBS. The blocking agent is rinsed from the cells with PBS after 1 hour at 37° C. and primary monoclonal antibody is added to each well containing compound. Primary antibody is incubated for 1 hour at 37° C. and rinsed 3 times with PBS containing 0.02% TWEEN-20™ before addition of Horseradish Peroxidase (HRP) conjugated secondary antibody. HRP is incubated for 1 hour at 37° C. and rinsed several times, first with PBS/TWEEN-20™ followed by PBS alone. To quantify peroxidase activity, 3,3′,5, 5′-tetramethylbenzidine (TMB) substrate is added to the plate and after 30 minutes, the plates are read in an ELISA plate reader at an OD of 650 nm. Compound dose response was measured in an 8-point dose curve diluted serially to determine the inhibitory concentration at 50% (EC50 value). […] Ranges of 50% effective concentrations (EC50s) for representative compounds within the scope of this invention are listed in Table 1. Preferred compounds have 50% effective concentrations at about 30 μM or less, more preferred compounds have 50% effective concentrations at about 5 μM or less, and most preferred compounds have 50% effective concentrations at about 0.5 μM or less.
# [2] = Hepatitis C virus, ranges of EC50 in HCV replicon assay, read-out: Replicon
# [3] = HCV NS5B RdRp, BB7, class symbols A-D
# [4] = Hepatitis C virus, HCV replicon assay, ranges of EC50, read-out: Replicon
# [5] = HCV NS5B RdRp, BB7, activity class
# [6] = purified His-tagged NS5B (BB7), carboxyl terminal 21 amino acids removed
# [7] = HCV NS5B polymerase, BB7 (genotype 1b), values given as range classes A-D
# [8] = Hepatitis C virus, Huh-7-Clone A, NS5A ELISA, 72-hour incubation, ranges of EC50, read-out: Replicon
# [9] = Hepatitis C virus, HCV replicon assay, ranges of 50% effective concentration (EC50), read-out: Replicon
# [10] = HCV NS5B RdRp, BB7, reported as range class
# [11] = Hepatitis C virus, HCV replicon, range of EC50, read-out: Replicon
structure (smiles),measurement,setting,value
"CNC(=O)c1c(-c2ccc(F)cc2)oc2cc(-c3ccco3)c(OC(C)C)cc12 [Example 151, 2-(4-Fluoro-phenyl)-6-furan-2-yl-5-isopropoxy-benzofuran-3-carboxylic acid methylamide]",IC50,"HCV NS5B; HCV NS5B RdRp, BB7 genotype 1b",≤ 0.5 µM
same,EC50,[1]; [2],< 30 µM
"CNC(=O)c1c(-c2ccc(F)cc2)oc2cc(-c3cc(C4CC4)on3)c(OC(C)C)cc12 [Example 274, 6-(5-Cyclopropyl-isoxazol-3-yl)-2-(4-fluoro-phenyl)-5-isopropoxy-benzofuran-3-carboxylic acid methylamide]",IC50,HCV NS5B; [3],≤ 0.5 µM
same,EC50,[1]; [4],< 1 µM
"CNC(=O)c1c(-c2ccc(F)cc2)oc2cc(C3CCCN3C(N)=O)c(OC)cc12 (stereo not shown) [Example 368, 2-[2-(4-Fluoro-phenyl)-5-methoxy-3-methylcarbamoyl-benzofuran-6-yl]-pyrrolidine-1-carboxylic acid amide]",IC50,HCV NS5B; [5],≤ 0.5 µM
same,EC50,[1]; [4],< 1 µM
"CNC(=O)c1c(-c2ccc(F)cc2)oc2cc(-c3c(COC)noc3C3CC3)c(OC)cc12 [Example 344, 6-(5-Cyclopropyl-3-methoxymethyl-isoxazol-4-yl)-2-(4-fluoro-phenyl)-5-methoxy-benzofuran-3-carboxylic acid methylamide]",IC50,HCV NS5B; [5],≤ 0.5 µM
same,EC50,[1]; [4],< 1 µM
"CCNC(=O)c1c(-c2ccccc2)oc2ccc(OC)cc12 [Example 130, 5-Methoxy-2-phenyl-benzofuran-3-carboxylic acid ethylamide]",IC50,"HCV NS5B; HCV NS5B RdRp, BB7 genotype 1b",5 to 30 µM
same,EC50,[1]; [2],< 10 µM
CCN(c1cc2oc(-c3ccc(F)cc3)c(C(=O)NC)c2cc1OCc1ccc2c(c1)C(=O)OC(C)(C)O2)S(C)(=O)=O [Example 294],IC50,HCV NS5B; [3],≤ 0.5 µM
same,EC50,"[1]; Hepatitis C virus, read-out: Replicon (μM)",< 1 µM
"CNC(=O)c1c(-c2ccoc2)oc2ccc(OC)cc12 [Example 1, 2-Furan-3-yl-5-methoxy-benzofuran-3-carboxylic acid methylamide]",IC50,HCV NS5B; [6],0.5 to 5 µM
same,EC50,"[1]; Hepatitis C virus, 72 h, read-out: Replicon (μM)",< 30 µM
"CNC(=O)COc1cc2c(C(=O)NC)c(-c3ccc(F)cc3)oc2cc1N(C)S(C)(=O)=O [Example 421, 2-(4-Fluoro-phenyl)-6-(methanesulfonyl-methyl-amino)-5-methylcarbamoyl-methoxy-benzofuran-3-carboxylic acid methylamide]",IC50,HCV NS5B; [7],≤ 0.5 µM
same,EC50,"[1]; HCV replicon assay, ranges of 50% effective concentration (EC50), read-out: Replicon",< 1 µM
"CNC(=O)c1c(-c2ccc(F)cc2)oc2cc(C(C)(C)O)c(C)cc12 [Example 300, 2-(4-Fluoro-phenyl)-6-(1-hydroxy-1-methyl-ethyl)-5-methyl-benzofuran-3-carboxylic acid methylamide]",IC50,HCV NS5B; [3],≤ 0.5 µM
same,EC50,[1]; [4],< 10 µM
"CCOc1cc2c(C(=O)NC)c(-c3ccc(F)cc3)oc2cc1N(C)S(C)(=O)=O [Example 38, 5-Ethoxy-2-(4-fluoro-phenyl)-6-(methanesulfonyl-methyl-amino)-benzofuran-3-carboxylic acid methylamide]",IC50,HCV NS5B; [6],≤ 0.5 µM
same,EC50,[1]; [8],< 1 µM
"CNC(=O)c1c(-c2ccc(F)cc2)oc2cc(N(Cc3cc(C)on3)S(C)(=O)=O)c(OC(C)C)cc12 [Example 282, 2-(4-Fluoro-phenyl)-5-isopropoxy-6-[methanesulfonyl-(5-methyl-isoxazol-3-ylmethyl)-amino]-benzofuran-3-carboxylic acid methylamide]",IC50,HCV NS5B; [3],≤ 0.5 µM
same,EC50,[1]; [4],< 1 µM
"CNC(=O)c1c(-c2ccc(F)cc2)oc2cc(N(C)S(C)(=O)=O)c(OCC(N)=O)cc12 [Example 424, 5-Carbamoylmethoxy-2-(4-fluoro-phenyl)-6-(methanesulfonyl-methyl-amino)-benzofuran-3-carboxylic acid methylamide]",IC50,HCV NS5B; [7],≤ 0.5 µM
same,EC50,[1]; [9],< 1 µM
"CNC(=O)c1c(-c2ccc(F)cc2)oc2cc(N3CCOCC3)c(OC3CCCC3)cc12 [Example 173, 5-Cyclopentyloxy-2-(4-fluoro-phenyl)-6-morpholin-4-yl-benzofuran-3-carboxylic acid mehtylamide]",IC50,HCV NS5B; [10],≤ 0.5 µM
same,EC50,[1]; [11],< 1 µM
"CCOCc1cc(-c2cc3oc(-c4ccc(F)cc4)c(C(=O)NC)c3cc2OC)no1 [Example 350, 6-(5-Ethoxymethyl-isoxazol-3-yl)-2-(4-fluoro-phenyl)-5-methoxy-benzofuran-3-carboxylic acid methylamide]",IC50,HCV NS5B; [5],≤ 0.5 µM
same,EC50,[1]; [4],< 1 µM
"CNC(=O)c1c(-c2ccc(F)cc2)oc2cc(C3(C)NC(=O)NC3=O)c(OC)cc12 (stereo not shown) [Example 389, 2-(4-Fluoro-phenyl)-5-methoxy-6-(4-methyl-2,5-dioxo-imidazolidin-4-yl)-benzofuran-3-carboxylic acid methylamide]",IC50,HCV NS5B; [7],≤ 0.5 µM
same,EC50,[1]; [9],< 10 µM
"CNC(=O)c1c(-c2ccc(F)cc2)oc2cc(N(C)S(C)(=O)=O)c(OCC3CC3)cc12 [Example 351, 5-Cyclopropylmethoxy-2-(4-fluoro-phenyl)-6-(methanesulfonyl-methyl-amino)-benzofuran-3-carboxylic acid methylamide]",IC50,HCV NS5B; [5],≤ 0.5 µM
same,EC50,[1]; [4],< 1 µM
"CNC(=O)c1c(-c2ccc(F)cc2)oc2cc(N3CCOCC3)c(OCc3cnc[nH]3)cc12 [Example 225, 2-(4-Fluoro-phenyl)-5-(3H-imidazol-4-ylmethoxy)-6-morpholin-4-yl-benzofuran-3-carboxylic acid methylamide]",IC50,HCV NS5B; [10],≤ 0.5 µM
same,EC50,[1]; [11],< 10 µM
"CNC(=O)c1c(-c2ccc(F)cc2)oc2cc(-c3cc(C)nn3C)c(OC(C)C)cc12 [Example 245, 6-(2,5-Dimethyl-2H-pyrazol-3-y1)-2-(4-fluoro-phenyl)-5-isopropoxybenzofuran 3-carboxylic acid methylamide]",IC50,HCV NS5B; [10],0.5 to 5 µM
same,EC50,[1]; [11],< 10 µM
"CCNc1cc2oc(-c3ccc(F)cc3)c(C(=O)NC)c2cc1OC(C)C [Example 22, 6-Ethylamino-2-(4-fluoro-phenyl)-5-isopropoxy-benzofuran-3-carboxylic acid methylamide]",IC50,HCV NS5B; [6],≤ 0.5 µM
same,EC50,[1]; [8],< 1 µM
"CNC(=O)c1c(-c2ccc(F)cc2)oc2cc(NS(C)(=O)=O)c(OC(C)C)cc12 [Example 21, 2-(4-Fluoro-phenyl)-5-isopropoxy-6-methanesulfonylamino-benzofuran-3-carboxylic acid methylamide]",IC50,HCV NS5B; [6],≤ 0.5 µM
same,EC50,[1]; [8],< 1 µM
"CNC(=O)c1c(-c2ccc(F)cc2)oc2ccc(OCc3cscn3)cc12 [Example 435, 2-(4-Fluoro-phenyl)-5-(thiazol-4-ylmethoxy)-benzofuran-3-carboxylic acid methylamide]",IC50,HCV NS5B; [7],0.5 to 5 µM
same,EC50,[1]; [9],> 30 µM
"CNC(=O)c1c(-c2ccc(F)cc2)oc2cc(NS(C)(=O)=O)c(-c3c(C)noc3C)cc12 [Example 407, 5-(3,5-Dimethyl-isoxazol-4-yl)-2-(4-fluoro-phenyl)-6-methanesulfonylamino-benzofuran-3-carboxylic acid methylamide]",EC50,[1]; [9],< 10 µM
